For one experiment, the system named is CV-1. Kind of experiment: Inhibitory effect on Varicella zoster virus in CV-1 cells. In kind it is functional, cell-based, Cercopithecidae. The settings on record: Chlorocebus aethiops.
The subject of another experiment is MT4. Kind of experiment: Inhibitory effect on human immunodeficiency virus type-1 (HIV-1) in MT-4 cells. In kind it is functional. The settings on record: read-out: ID50 (the source's name).

Values after ≈ are worked out from the molar mass of the structure shown.

`O=c1[nH]c(=O)n(C2O[C@H](CO)[C@H](CF)[C@@H]2F)cc1I` (some centres not stated) came in with an IC50 in the experiment on CV-1 of 5.3 µg/mL (≈ 13.7 µM).

For the molecule `Cc1cn([C@H]2C[C@H](F)[C@@H](CO)O2)c(=O)[nH]c1=O` [ALOVUDINE], in the experiment on MT4, the IC50 is 50 nM.

The record behind these values is ChEMBL document CHEMBL1124907, “Synthesis and antiviral activity of some 3'-C-difluoromethyl and 3'-deoxy-3'-C-fluoromethyl nucleosides” (J Med Chem, 1990).
